Holding throughout (format): cell-based
The test system of experiment [1] is OVCAR5 cells. The experiment can be described thus: Cell cycle analysis by flow cytometry, OVCAR5. The following applies: 48 h. How it is done: The effect of the compounds on cell cycle distribution was evaluated following a previously reported method. Briefly, six-well plates (Sigma-Aldrich, NSW, Australia) were seeded with about 1–2 × 10^5 cells/well in 2 mL growth medium, incubated at 37 °C and 5% CO2 overnight, and treated with various concentrations of the test compounds and incubated for 48 h. The wells were collected by trypsinization, transferred into fluorescence-activating cell sorting (FACS) tubes, washed with 1 × phosphate-buffered saline (1 × PBS) twice, fixed in 70% (v/v) ice-cold ethanol for 15 min, and centrifuged at 300× g for 5 min. The cell pellets were then collected, stained with 200 µL of the cell cycle solution (comprising 50.0 μg/mL PI, 0.1 mg/mL RNase A, and 0.05% Triton X-100), and incubated for 1.5 h at room temperature in the dark. Finally, the DNA content was determined by a flow cytometer (CytoFLEX) and analyzed by CytExpert 2.1 software (Beckman Coulter, Brea, CA, USA).
On the technique in general: In flow cytometry, cells or beads pass a laser one at a time.

Experiment [2] concerns OVCAR5 cells. The experiment is described as follows: Annexin V/PI apoptosis assay, OVCAR5. The conditions noted are these: 48 h. How it is done: Annexin V-fluorescein isothiocyanate (FITC) apoptosis detection kit I (consisting of a ten-time stock solution of binding buffer, FITC–annexin V, and PI staining solution) was used to determine the effect of the compounds on cancer cell survival as previously reported. Briefly, six-well plates (Sigma-Aldrich, NSW, Australia) were seeded with about 1–2 × 10^5 cells/well in 2 mL growth medium, incubated at 37 °C and 5% CO2 overnight, treated with various concentrations of the test compounds, and incubated for 48 h. The wells were collected by trypsinization, transferred into FACS tubes, washed twice with 1 × PBS, and centrifuged at 300× g for 5 min. The pellets were then suspended in 100 µL of 1 × binding buffer and incubated in the dark with 3 µL of PI and 3 µL of FITC-conjugated annexin V solutions for 15 min. Finally, 200 µL of binding buffer was added to each sample and analyzed by the CytoFLEX cytometer. The extent of apoptotic cell death was quantified as the sum of the percentages of early apoptotic cells (annexin V-positive and PI-negative) and late apoptotic cells (both annexin–V- and PI-positive) and presented graphically as a contour diagram relative to the untreated control.

Experiment [3] relates to OAW28 ovarian cancer cells. The experiment is described as follows: Cell viability assay (MTT/resazurin), OAW28. The following applies: Homo sapiens, OAW-28, read-out: Antiproliferative Activity, GI50. From the text:
(§1) Cancer cell lines derived from leukemia (MV4-11 and U937), breast (MCF7 (Rb-positive) and MDA-MB-231(Rb-negative)), and ovarian (A2780, OVCAR5, OAW28, OV90, Cov318, and Cov504) cancers, and glioblastoma (U87, T98G and U251) were acquired from the cell bank at Drug Discovery and Development, University of South Australia, and cultured according to the American Type Culture Collection (ATCC) recommendation in Roswell Park Memorial Institute (RPMI)-1640, Dulbecco’s Modified Eagle’s Medium (DMEM), or Minimum Essential Media (MEM), with 10% fetal bovine serum (Sigma-Aldrich, Castle Hill, NSW, Australia) within a humidified incubator at 37 °C in the presence of 5% CO2.
(§2) The MTT (Life Technologies, Mulgrave, VIC, Australia) and resazurin (Sigma-Aldrich) assays were used to determine the antiproliferative activities of the compounds initially at 1 µM against the cancer cell lines stated above.
(In general: Resazurin is reduced to fluorescent resorufin, in cell work by metabolically active cells.)

A further experiment relates to OV90 cells. The experiment can be described thus: Colony formation (crystal violet), OV90. The conditions noted are these: OV90, 10 days. The protocol: Briefly, ovarian cancer cells (i.e., A2780, OVCAR5, and OV90) seeded in six-well plates were adhered for 6 h and treated with 15. The medium that contained the compound was then changed every 72 h. Ten days after treatment, the cells were washed with PBS, fixed, and stained with crystal violet staining solution (0.05% crystal violet, 1% formaldehyde, 1% PBS, and 1% ethanol), and colonies were quantified using ImageJ software (National Institute of Health, Maryland, USA), with data presented as percentages of the control cells.

Experiment [4] deals with A2780 ovarian cancer cells. The experiment can be described thus: 72 h MTT antiproliferative assay, A2780. The conditions noted are these: Homo sapiens, A2780; 72 h MTT.
Source text: as §1, §2
For orientation: Formazan colour is commonly taken as a measure of viable cells.

The test system of a further experiment is U251 glioblastoma cells. The experiment is described as follows: Cell viability assay (MTT/resazurin), U251. The conditions noted are these: Homo sapiens, U-251, read-out: Antiproliferative Activity, GI50.
Source text: as §1, §2

The test system of the next experiment is MV4-11 leukemia cells. The experiment can be described thus: Cell viability assay (MTT/resazurin), MV4-11. The conditions noted are these: Homo sapiens, read-out: Antiproliferative Activity, GI50.
Source text: as §1, §2

Another experiment concerns U87 glioblastoma cells. The experiment is described as follows: Cell viability assay (MTT/resazurin), U87. The conditions noted are these: read-out: Antiproliferative Activity, GI50.
Source text: as §1, §2

The subject of another experiment is U937 leukemia cells. The experiment can be described thus: Cell viability assay (MTT/resazurin), U937. The conditions noted are these: Homo sapiens, U-937, read-out: Antiproliferative Activity, GI50.
Source text: as §1, §2

On to `Cn1cc(-c2nc(Nc3cn[nH]c3)ncc2Cl)cn1` [Compound 15, 5-Chloro-4-(1-methyl-1H-pyrazol-4-yl)-N-(1H-pyrazol-4-yl)pyrimidin-2-amine], for which the “increment in the subpopulation of G2/M cells compared to the vehicle control” value in the experiment with OVCAR5 cells [1] (OVCAR5, 0.5 µM) was determined as 39%. In the experiment with OVCAR5 cells [1] (OVCAR5, 2 µM), this compound displayed a G2/M cells of 53%. This compound also yielded a S-phase cells with OVCAR5 cells [1] (OVCAR5, 2 µM) of 26%. Moreover, the viability at 0.5 µM in the experiment with OVCAR5 cells [2] (Homo sapiens, OVCAR-5, OVCAR5, 0.5 µM, read-out: Q1-LL, viable cells) was 67.4%. Further, the viability at 2 µM in the experiment on OVCAR5 cells [2] (Homo sapiens, OVCAR-5, OVCAR5, 2 µM, read-out: Q1-LL, viable cells) stood at 57.8%. The “apoptosis (annexin V positive, early + late)” value in the experiment on OVCAR5 cells [2] (OVCAR5, 0.5 µM) was 30%; in the experiment on OVCAR5 cells [2] (OVCAR5, 2 µM) it was 38%. The GI50 in experiment [3] was found to be 534 nM; in experiment [4] it was 158 nM; in the experiment on U251 glioblastoma cells, 350 nM; with MV4-11 leukemia cells, 127 nM; in the experiment with U87 glioblastoma cells, 560 nM; in the experiment on U937 leukemia cells, 186 nM. For the same compound, the “effect on colony formation” value in the experiment on OV90 cells (0.5 µM) is listed as “partial inhibition”; in the experiment on OV90 cells (15 at 0.5 and 2 µM, CYC065 at 0.5 µM), “inhibited”.

Broadly, the GI50 is the concentration at which growth is held to half of that of the control.

The values are drawn from article PMC10096391, “Discovery of N,4-Di(1H-pyrazol-4-yl)pyrimidin-2-amine-Derived CDK2 Inhibitors as Potential Anticancer Agents: Design, Synthesis, and Evaluation” (Molecules, 2023).
